In ChEMBL document CHEMBL5500417, “Discovery of Novel 2-Oxoacetamide Derivatives as B3GAT3 Inhibitors for the Treatment of Hepatocellular Carcinoma” (J Med Chem, 2024):
Each block holds one compound with its values, some of them ahead of it.

Key:
MHCC97H [1] = experiment: cells; conditions: Homo sapiens, 72 h
Description: Antitumor activity against human MHCC97H cells assessed as inhibition of cell growth measured after 72 hrs by CCK-8 assay

HCCLM3 [2] = experiment: cells; conditions: Homo sapiens, HCCLM3, 72 h
Description: Antitumor activity against human HCCLM3 cells assessed as inhibition of cell growth measured after 72 hrs by CCK-8 assay

[3] = biological target: T1, Galactosylgalactosylxylosylprotein 3-beta-glucuronosyltransferase 3 (Homo sapiens, UniProt O94766); experiment: Binding affinity to CM5 sensor chip immobilized human B3GAT3 assessed as dissociation constant by SPR analysis
T1 sequence (O94766 whole entry): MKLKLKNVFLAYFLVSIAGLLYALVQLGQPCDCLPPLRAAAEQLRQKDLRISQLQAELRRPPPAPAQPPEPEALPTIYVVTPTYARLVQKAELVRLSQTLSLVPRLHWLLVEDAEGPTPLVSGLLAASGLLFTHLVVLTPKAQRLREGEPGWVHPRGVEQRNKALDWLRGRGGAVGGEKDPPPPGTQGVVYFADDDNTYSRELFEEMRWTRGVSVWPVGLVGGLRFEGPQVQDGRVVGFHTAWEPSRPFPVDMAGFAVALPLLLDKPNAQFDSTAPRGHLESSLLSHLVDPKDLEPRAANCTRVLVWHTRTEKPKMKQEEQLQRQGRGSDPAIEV

MHCC97H [4] = experiment: In vivo-antitumor activity against human MHCC97H cells xenografted BALB/c mouse model assessed as tumor growth inhibitor at 5 mg/kg, IG once daily measured after 31 days relative to control; conditions: po, 744 h, read-out: TGI
HCCLM3 [5] = experiment: In vivo-antitumor activity against human HCCLM3 cells xenografted BALB/c mouse model assessed as reduction in tumor weight at 5 mg/kg, IG once daily measured after 31 days relative to control; conditions: HCCLM3, po, 744 h, read-out: INH

IC50 (MHCC97H [1]): 16.3 µM | IC50 (HCCLM3 [2]): 25.4 µM
Structure (SMILES): Cc1ccc(C(=O)N2CCN(C(=O)C(=O)c3c[nH]c4ccc(Br)cc34)CC2)c(Cl)c1

IC50 (MHCC97H [1]): 11.8 µM | IC50 (HCCLM3 [2]): 22.2 µM
Structure (SMILES): Cc1ccc(C(=O)N(C)C2CCN(C(=O)C(=O)c3c[nH]c4ccc(Br)cc34)CC2)c(Cl)c1

IC50 (MHCC97H [1]): 21.3 µM | IC50 (HCCLM3 [2]): 22.2 µM
Structure (SMILES): Cc1ccc(C(=O)N2CCC(C)(NC(=O)C(=O)c3c[nH]c4ccc(Br)cc34)CC2)c(Cl)c1

IC50 (MHCC97H [1]): 35.1 µM | IC50 (HCCLM3 [2]): 44.3 µM
Structure (SMILES): Cc1ccc(N2CCC(NC(=O)C(=O)c3c[nH]c4ccc(F)cc34)C2=O)c(Cl)c1 (centres undefined)

IC50 (MHCC97H [1]): > 80 µM | IC50 (HCCLM3 [2]): > 80 µM
Structure (SMILES): Cc1ccc(N2CCC(NC(=O)C(=O)c3c[nH]c4cc(C(=O)O)ccc34)C2=O)c(Cl)c1 (centres undefined)

IC50 (MHCC97H [1]): 17 µM | IC50 (HCCLM3 [2]): 31 µM
Structure (SMILES): Cc1ccc(C(=O)N2CCCC(NC(=O)C(=O)c3c[nH]c4ccc(Br)cc34)C2)c(Cl)c1 (centres undefined)

IC50 (MHCC97H [1]): 52.8 µM | IC50 (HCCLM3 [2]): 53.9 µM
Structure (SMILES): Cc1ccc(N2CCC(NC(=O)C(=O)c3c[nH]c4ccc(C)cc34)C2=O)c(Cl)c1 (centres undefined)

IC50 (MHCC97H [1]): 12.9 µM | IC50 (HCCLM3 [2]): 23.6 µM
Structure (SMILES): Cc1ccc(C(=O)NCC2CCN(C(=O)C(=O)c3c[nH]c4ccc(Br)cc34)CC2)c(Cl)c1

Kd [3]: 206 µM | IC50 (MHCC97H [1]): 3.51 µM | IC50 (HCCLM3 [2]): 11.7 µM
Structure (SMILES): Cc1ccc(N2CCC(NC(=O)C(=O)Nc3ccc4c(c3)CCC4)C2=O)c(Cl)c1 (centres undefined)

IC50 (MHCC97H [1]): 19.4 µM | IC50 (HCCLM3 [2]): 30.8 µM
Structure (SMILES): Cc1ccc(C(=O)NC2CCN(C(=O)C(=O)c3c[nH]c4ccc(Br)cc34)C2)c(Cl)c1 (centres undefined)

IC50 (MHCC97H [1]): 15.3 µM | IC50 (HCCLM3 [2]): 18.6 µM
Structure (SMILES): O=C(NC1CCN(c2ccc(OC(F)(F)F)cc2)C1=O)C(=O)c1c[nH]c2ccc(Br)cc12 (centres undefined)

IC50 (MHCC97H [1]): 13 µM | IC50 (HCCLM3 [2]): 21.3 µM
Structure (SMILES): Cc1ccc(C(=O)N2CCC(NC(=O)C(=O)c3c[nH]c4ccc(Br)cc34)C2)c(Cl)c1 (centres undefined)

The remaining lines, values behind:

Structure (SMILES): Cc1ccc(C(=O)N2[C@@H]3CC[C@H]2CN(C(=O)C(=O)c2c[nH]c4ccc(Br)cc24)C3)c(Cl)c1
IC50 (MHCC97H [1]): 18.5 µM | IC50 (HCCLM3 [2]): 26.7 µM

Structure (SMILES): Cc1ccc(N2CCC(NC(=O)C(=O)c3c[nH]c4ccc(O)cc34)C2=O)c(Cl)c1 (centres undefined)
IC50 (MHCC97H [1]): 72.2 µM | IC50 (HCCLM3 [2]): > 80 µM

Structure (SMILES): Cc1ccc(N2CCC(NC(=O)C(=O)c3c[nH]c4ccc(C(=O)O)cc34)C2=O)c(Cl)c1 (centres undefined)
IC50 (MHCC97H [1]): > 80 µM | IC50 (HCCLM3 [2]): > 80 µM

Structure (SMILES): Cc1ccc(N2CCC(NC(=O)C(=O)Nc3ccc4c(c3)C(C)(C)c3ccccc3-4)C2=O)c(Cl)c1 (centres undefined)
IC50 (MHCC97H [1]): 9.7 µM | IC50 (HCCLM3 [2]): > 80 µM

Structure (SMILES): Cc1ccc(N2CCC(NC(=O)C(=O)c3c[nH]c4ccc(N)cc34)C2=O)c(Cl)c1 (centres undefined)
IC50 (MHCC97H [1]): > 80 µM | IC50 (HCCLM3 [2]): > 80 µM

Structure (SMILES): Cc1ccc(N2CCC(NC(=O)C(=O)c3c[nH]c4ccc(Br)cc34)C2=O)c(Cl)c1 (centres undefined)
Kd [3]: 113 µM | IC50 (MHCC97H [1]): 6.19 µM | IC50 (HCCLM3 [2]): 15.8 µM

Structure (SMILES): Cc1ccc(N2CCC(NC(=O)C(=O)N3CCCc4ccccc43)C2=O)c(Cl)c1 (centres undefined)
IC50 (MHCC97H [1]): > 80 µM | IC50 (HCCLM3 [2]): > 80 µM

Structure (SMILES): Cc1ccc(N2CCC(NC(=O)C(=O)c3c[nH]c4ccc(Br)cc34)C2=O)cc1 (centres undefined)
IC50 (MHCC97H [1]): > 80 µM | IC50 (HCCLM3 [2]): > 80 µM

Structure (SMILES): Cc1ccc(N2CCC(NC(=O)CC(=O)Nc3ccc4c(c3)Cc3ccccc3-4)C2=O)c(Cl)c1 (centres undefined)
IC50 (MHCC97H [1]): > 80 µM | IC50 (HCCLM3 [2]): 57.3 µM

Structure (SMILES): Cc1ccc(C(=O)N2CCC(NC(=O)C(=O)c3c[nH]c4ccc(Br)cc34)CC2)c(Cl)c1
IC50 (MHCC97H [1]): 28.1 µM | IC50 (HCCLM3 [2]): 1530 µM

Structure (SMILES): COc1ccc2[nH]cc(C(=O)C(=O)NC3CCN(c4ccc(C)cc4Cl)C3=O)c2c1 (centres undefined)
IC50 (MHCC97H [1]): 37.8 µM | IC50 (HCCLM3 [2]): 34.7 µM

Structure (SMILES): COC(=O)c1ccc2c(C(=O)C(=O)NC3CCN(c4ccc(C)cc4Cl)C3=O)c[nH]c2c1 (centres undefined)
IC50 (MHCC97H [1]): 46.8 µM | IC50 (HCCLM3 [2]): 54.8 µM

Structure (SMILES): Cc1ccc(C(=O)NC2CCN(C(=O)C(=O)c3c[nH]c4ccc(Br)cc34)CC2)c(Cl)c1
IC50 (MHCC97H [1]): 61.5 µM | IC50 (HCCLM3 [2]): 60.8 µM

Structure (SMILES): O=C(NC1CCN(c2ccc(F)cc2)C1=O)C(=O)c1c[nH]c2ccc(Br)cc12 (centres undefined)
IC50 (MHCC97H [1]): 11.8 µM | IC50 (HCCLM3 [2]): 24.9 µM

Structure (SMILES): Cc1ccc(C(=O)NC2(C)CCN(C(=O)C(=O)c3c[nH]c4ccc(Br)cc34)CC2)c(Cl)c1
IC50 (MHCC97H [1]): 27.3 µM | IC50 (HCCLM3 [2]): 59.2 µM

Structure (SMILES): Cc1ccc(N2CCC(NC(=O)C(=O)c3c[nH]c4ccccc34)C2=O)c(Cl)c1 (centres undefined)
IC50 (MHCC97H [1]): 52.7 µM | IC50 (HCCLM3 [2]): 60 µM

Structure (SMILES): Cc1ccc(N2CCC(NC(=O)C(=O)NC3CCc4ccccc43)C2=O)c(Cl)c1 (centres undefined)
IC50 (MHCC97H [1]): > 80 µM | IC50 (HCCLM3 [2]): 61.4 µM

Structure (SMILES): O=C(NC1CCN(c2ccccc2)C1=O)C(=O)c1c[nH]c2ccc(Br)cc12 (centres undefined)
IC50 (MHCC97H [1]): > 80 µM | IC50 (HCCLM3 [2]): > 80 µM

Structure (SMILES): Cc1ccc(N2CCC(NC(=O)C(=O)c3c[nH]c4ccc(Cl)cc34)C2=O)c(Cl)c1 (centres undefined)
IC50 (MHCC97H [1]): 18.4 µM | IC50 (HCCLM3 [2]): 31 µM

Structure (SMILES): Cc1ccc(N2CCC(NC(=O)C(=O)Nc3ccc4c(c3)Cc3ccccc3-4)C2=O)c(Cl)c1 (centres undefined)
Kd [3]: 291 µM | IC50 (MHCC97H [1]): 14.3 µM | IC50 (HCCLM3 [2]): 14.5 µM

Structure (SMILES): Cc1ccc(N2CCC(NC(=O)C(=O)Nc3ccc4c(c3)OCO4)C2=O)c(Cl)c1 (centres undefined)
IC50 (MHCC97H [1]): 25.7 µM | IC50 (HCCLM3 [2]): 24.7 µM

Structure (SMILES): Cc1ccc(N2CCC(NC(=O)C(=O)c3c[nH]c4ccc(Br)cc34)C2=O)cc1Cl (centres undefined)
IC50 (MHCC97H [1]): 12 µM | IC50 (HCCLM3 [2]): > 80 µM

Structure (SMILES): Cc1ccc(N2CCC(NC(=O)CC(=O)Nc3ccc(-c4ccccc4)cc3)C2=O)c(Cl)c1 (centres undefined)
IC50 (MHCC97H [1]): 54.7 µM | IC50 (HCCLM3 [2]): 60.4 µM

Structure (SMILES): Cc1ccc(N2CCC(NC(=O)C(=O)c3c[nH]c4ccc(C#N)cc34)C2=O)c(Cl)c1 (centres undefined)
IC50 (MHCC97H [1]): 33.7 µM | IC50 (HCCLM3 [2]): 55.8 µM

Structure (SMILES): Cc1ccc(N2CCC(NC(=O)C(=O)Nc3ccc(-c4ccccc4)cc3)C2=O)c(Cl)c1 (centres undefined)
Kd [3]: 289 µM | IC50 (MHCC97H [1]): 5.59 µM | IC50 (HCCLM3 [2]): 17.7 µM

Structure (SMILES): Cc1ccc(N2CCC(NC(=O)C(=O)Nc3ccc4c(c3)OCCO4)C2=O)c(Cl)c1 (centres undefined)
IC50 (MHCC97H [1]): 14.5 µM | IC50 (HCCLM3 [2]): 12.2 µM

Structure (SMILES): COc1cc2nccc(Oc3ccc(NC(=O)NC4CC4)c(Cl)c3)c2cc1C(N)=O [LENVATINIB]
inhibition in vivo at 5 mg/kg (MHCC97H [4]): 85% | inhibition in vivo at 5 mg/kg (HCCLM3 [5]): 94.6% | IC50 (MHCC97H [1]): > 80 µM | IC50 (HCCLM3 [2]): 27.8 µM
